In PubChem BioAssay (NCI):
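Assay format: 96-well plates, 48-hour exposure. TGI is the concentration that stops growth completely.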

Key:
Experiment in all cases: NCI tumour cell line growth inhibition, 48 h
786-0 renal = tested on: 786-0 renal
A498 renal = tested on: A498 renal
A549 NSCLC = tested on: A549 NSCLC
ACHN renal = tested on: ACHN renal
CAKI-1 renal = tested on: CAKI-1 renal
CCRF-CEM leukemia = tested on: CCRF-CEM leukemia
COLO 205 colon = tested on: COLO 205 colon
DLD-1 colon = tested on: DLD-1 colon
DMS 273 small cell lung = tested on: DMS 273 small cell lung
EKVX NSCLC = tested on: EKVX NSCLC
HCC-2998 colon = tested on: HCC-2998 colon
HCT-116 colon = tested on: HCT-116 colon
HCT-15 colon = tested on: HCT-15 colon
HOP-18 NSCLC = tested on: HOP-18 NSCLC
HOP-62 NSCLC = tested on: HOP-62 NSCLC
HT29 colon = tested on: HT29 colon
IGROV1 ovarian = tested on: IGROV1 ovarian
K-562 leukemia = tested on: K-562 leukemia
KM12 colon = tested on: KM12 colon
KM20L2 colon = tested on: KM20L2 colon
LOX IMVI melanoma = tested on: LOX IMVI melanoma
LXFL 529 NSCLC = tested on: LXFL 529 NSCLC
M14 melanoma = tested on: M14 melanoma
M19-MEL melanoma = tested on: M19-MEL melanoma
MALME-3M melanoma = tested on: MALME-3M melanoma
MOLT-4 leukemia = tested on: MOLT-4 leukemia
NCI-H226 lung = tested on: NCI-H226 lung
NCI-H23 lung = tested on: NCI-H23 lung
NCI-H460 lung = tested on: NCI-H460 lung
NCI-H522 lung = tested on: NCI-H522 lung
OVCAR-3 ovarian = tested on: OVCAR-3 ovarian
OVCAR-4 ovarian = tested on: OVCAR-4 ovarian
OVCAR-5 ovarian = tested on: OVCAR-5 ovarian
OVCAR-8 ovarian = tested on: OVCAR-8 ovarian
RPMI-8226 leukemia = tested on: RPMI-8226 leukemia
RXF 393 renal = tested on: RXF 393 renal
SF-268 CNS = tested on: SF-268 CNS
SF-295 CNS = tested on: SF-295 CNS
SF-539 CNS = tested on: SF-539 CNS
SK-MEL-2 melanoma = tested on: SK-MEL-2 melanoma
SK-MEL-5 melanoma = tested on: SK-MEL-5 melanoma
SK-OV-3 ovarian = tested on: SK-OV-3 ovarian
SN12C renal = tested on: SN12C renal
SNB-19 CNS = tested on: SNB-19 CNS
SNB-75 CNS = tested on: SNB-75 CNS
SNB-78 CNS = tested on: SNB-78 CNS
SW-620 colon = tested on: SW-620 colon
TK-10 renal = tested on: TK-10 renal
U251 CNS = tested on: U251 CNS
UACC-257 melanoma = tested on: UACC-257 melanoma
UACC-62 melanoma = tested on: UACC-62 melanoma
UO-31 renal = tested on: UO-31 renal
BT-549 breast = tested on: BT-549 breast
DU-145 prostate = tested on: DU-145 prostate
HL-60(TB) leukemia = tested on: HL-60(TB) leukemia
HOP-92 NSCLC = tested on: HOP-92 NSCLC
HS 578T breast = tested on: HS 578T breast
MCF7 breast = tested on: MCF7 breast
MDA-MB-231 breast = tested on: MDA-MB-231 breast
MDA-MB-435 = tested on: MDA-MB-435
MDA-N = tested on: MDA-N
NCI/ADR-RES ovarian = tested on: NCI/ADR-RES ovarian
PC-3 prostate = tested on: PC-3 prostate
SK-MEL-28 melanoma = tested on: SK-MEL-28 melanoma
SR leukemia = tested on: SR leukemia
T-47D breast = tested on: T-47D breast

Cn1c(=O)nc2n(-c3cccc(F)c3)c3ccccc3nc-2c1=O
TGI (786-0 renal): > 100 µM | TGI (A498 renal): > 100 µM | TGI (A549 NSCLC): 53.5 µM | TGI (ACHN renal): 68.2 µM | TGI (CAKI-1 renal): 96.9 µM | TGI (CCRF-CEM leukemia): 56.7 µM | TGI (COLO 205 colon): 19 µM | TGI (DLD-1 colon): > 100 µM | TGI (DMS 273 small cell lung): 32.8 µM | TGI (EKVX NSCLC): 32.5 µM | TGI (HCC-2998 colon): 39.6 µM | TGI (HCT-116 colon): 77.8 µM | TGI (HCT-15 colon): 52.3 µM | TGI (HOP-18 NSCLC): > 100 µM | TGI (HOP-62 NSCLC): > 100 µM | TGI (HT29 colon): 32.5 µM | TGI (IGROV1 ovarian): 62.5 µM | TGI (K-562 leukemia): 58.1 µM | TGI (KM12 colon): > 100 µM | TGI (KM20L2 colon): 45.4 µM | TGI (LOX IMVI melanoma): 61.8 µM | TGI (LXFL 529 NSCLC): > 100 µM | TGI (M14 melanoma): 67.1 µM | TGI (M19-MEL melanoma): 5.3 µM | TGI (MALME-3M melanoma): 28.2 µM | TGI (MOLT-4 leukemia): 54.1 µM | TGI (NCI-H226 lung): > 100 µM | TGI (NCI-H23 lung): 35.2 µM | TGI (NCI-H460 lung): 67.1 µM | TGI (NCI-H522 lung): 38.1 µM | TGI (OVCAR-3 ovarian): 21.5 µM | TGI (OVCAR-4 ovarian): 27.8 µM | TGI (OVCAR-5 ovarian): 74.4 µM | TGI (OVCAR-8 ovarian): 77.1 µM | TGI (RPMI-8226 leukemia): 72.6 µM | TGI (RXF 393 renal): > 100 µM | TGI (SF-268 CNS): > 100 µM | TGI (SF-295 CNS): > 100 µM | TGI (SF-539 CNS): 66 µM | TGI (SK-MEL-2 melanoma): 52.6 µM | TGI (SK-MEL-5 melanoma): 27.3 µM | TGI (SK-OV-3 ovarian): > 100 µM | TGI (SN12C renal): 73.9 µM | TGI (SNB-19 CNS): 48.6 µM | TGI (SNB-75 CNS): 78.5 µM | TGI (SNB-78 CNS): 68.4 µM | TGI (SW-620 colon): 26.4 µM | TGI (TK-10 renal): > 100 µM | TGI (U251 CNS): 48.9 µM | TGI (UACC-257 melanoma): 28.1 µM | TGI (UACC-62 melanoma): 13 µM | TGI (UO-31 renal): > 100 µM

COc1cc(OC)c2c(O)c3c(cc2c1)CC(C)(C)CC3=O
TGI (786-0 renal): > 100 µM | TGI (A498 renal): > 100 µM | TGI (A549 NSCLC): > 100 µM | TGI (ACHN renal): > 100 µM | TGI (BT-549 breast): > 100 µM | TGI (CAKI-1 renal): > 100 µM | TGI (CCRF-CEM leukemia): > 100 µM | TGI (COLO 205 colon): > 100 µM | TGI (DU-145 prostate): > 100 µM | TGI (EKVX NSCLC): > 100 µM | TGI (HCC-2998 colon): > 100 µM | TGI (HCT-116 colon): > 100 µM | TGI (HCT-15 colon): > 100 µM | TGI (HL-60(TB) leukemia): > 100 µM | TGI (HOP-62 NSCLC): > 100 µM | TGI (HOP-92 NSCLC): > 100 µM | TGI (HS 578T breast): > 100 µM | TGI (HT29 colon): > 100 µM | TGI (IGROV1 ovarian): > 100 µM | TGI (K-562 leukemia): > 100 µM | TGI (KM12 colon): > 100 µM | TGI (LOX IMVI melanoma): > 100 µM | TGI (M14 melanoma): > 100 µM | TGI (MALME-3M melanoma): > 100 µM | TGI (MCF7 breast): > 100 µM | TGI (MDA-MB-231 breast): > 100 µM | TGI (MDA-MB-435): > 100 µM | TGI (MDA-N): > 100 µM | TGI (MOLT-4 leukemia): > 100 µM | TGI (NCI-H226 lung): > 100 µM | TGI (NCI-H23 lung): > 100 µM | TGI (NCI-H460 lung): > 100 µM | TGI (NCI-H522 lung): > 100 µM | TGI (NCI/ADR-RES ovarian): > 100 µM | TGI (OVCAR-3 ovarian): > 100 µM | TGI (OVCAR-4 ovarian): > 100 µM | TGI (OVCAR-5 ovarian): > 100 µM | TGI (OVCAR-8 ovarian): > 100 µM | TGI (PC-3 prostate): > 100 µM | TGI (RPMI-8226 leukemia): > 100 µM | TGI (RXF 393 renal): > 100 µM | TGI (SF-268 CNS): > 100 µM | TGI (SF-295 CNS): > 100 µM | TGI (SF-539 CNS): > 100 µM | TGI (SK-MEL-2 melanoma): > 100 µM | TGI (SK-MEL-28 melanoma): > 100 µM | TGI (SK-MEL-5 melanoma): > 100 µM | TGI (SK-OV-3 ovarian): > 100 µM | TGI (SN12C renal): > 100 µM | TGI (SNB-19 CNS): > 100 µM | TGI (SNB-75 CNS): > 100 µM | TGI (SR leukemia): > 100 µM | TGI (SW-620 colon): > 100 µM | TGI (T-47D breast): > 100 µM | TGI (TK-10 renal): > 100 µM | TGI (U251 CNS): > 100 µM | TGI (UACC-257 melanoma): > 100 µM | TGI (UACC-62 melanoma): > 100 µM | TGI (UO-31 renal): > 100 µM

CN(C)c1ccc(/C=C2\N=C(NN)NC2=O)cc1
TGI (786-0 renal): > 100 µM | TGI (A498 renal): > 100 µM | TGI (A549 NSCLC): > 100 µM | TGI (ACHN renal): > 100 µM | TGI (BT-549 breast): > 100 µM | TGI (CAKI-1 renal): > 100 µM | TGI (CCRF-CEM leukemia): > 100 µM | TGI (COLO 205 colon): > 100 µM | TGI (DU-145 prostate): > 100 µM | TGI (EKVX NSCLC): > 100 µM | TGI (HCC-2998 colon): > 100 µM | TGI (HCT-116 colon): > 100 µM | TGI (HCT-15 colon): > 100 µM | TGI (HL-60(TB) leukemia): > 100 µM | TGI (HOP-62 NSCLC): > 100 µM | TGI (HOP-92 NSCLC): > 100 µM | TGI (HS 578T breast): > 100 µM | TGI (HT29 colon): 98.9 µM | TGI (IGROV1 ovarian): > 100 µM | TGI (K-562 leukemia): > 100 µM | TGI (KM12 colon): > 100 µM | TGI (LOX IMVI melanoma): > 100 µM | TGI (M14 melanoma): > 100 µM | TGI (MALME-3M melanoma): > 100 µM | TGI (MCF7 breast): > 100 µM | TGI (MDA-MB-231 breast): > 100 µM | TGI (MDA-MB-435): > 100 µM | TGI (MDA-N): > 100 µM | TGI (MOLT-4 leukemia): > 100 µM | TGI (NCI-H226 lung): > 100 µM | TGI (NCI-H23 lung): > 100 µM | TGI (NCI-H460 lung): > 100 µM | TGI (NCI-H522 lung): > 100 µM | TGI (NCI/ADR-RES ovarian): > 100 µM | TGI (OVCAR-3 ovarian): > 100 µM | TGI (OVCAR-4 ovarian): > 100 µM | TGI (OVCAR-5 ovarian): > 100 µM | TGI (OVCAR-8 ovarian): > 100 µM | TGI (PC-3 prostate): > 100 µM | TGI (RPMI-8226 leukemia): > 100 µM | TGI (RXF 393 renal): > 100 µM | TGI (SF-268 CNS): > 100 µM | TGI (SF-295 CNS): > 100 µM | TGI (SF-539 CNS): 96.6 µM | TGI (SK-MEL-2 melanoma): > 100 µM | TGI (SK-MEL-28 melanoma): > 100 µM | TGI (SK-OV-3 ovarian): > 100 µM | TGI (SN12C renal): > 100 µM | TGI (SNB-19 CNS): > 100 µM | TGI (SNB-75 CNS): > 100 µM | TGI (SR leukemia): > 100 µM | TGI (SW-620 colon): > 100 µM | TGI (T-47D breast): > 100 µM | TGI (TK-10 renal): > 100 µM | TGI (U251 CNS): > 100 µM | TGI (UACC-257 melanoma): > 100 µM | TGI (UACC-62 melanoma): > 100 µM | TGI (UO-31 renal): > 100 µM
